Assay results as given in paper PMC12040169 (PLOS Biology, 2025).

Assay: in vitro
Settings: human, hela cells, % viability

SMILES	viability at 28.5 h, 10 µM [%]
O=C(NC1CC(=O)N(CC(F)(F)F)C1)c1cnc(-c2ccncc2)s1 (stereo not shown) [CBK305546]	78
CCOc1cc(NC2CCN(C(=O)C3CCCC(C)(C)C3)CC2)ncn1 (stereo not shown) [CBK305547]	80.9
Cc1nnc(CN(CC2CCCO2)C2CCC(C)CC2)n1C (stereo not shown) [CBK305548]	95.2
O=C(c1c[nH]nc1-c1cc2ccccc2o1)N1CCC(O)(C(F)(F)F)C1 (stereo not shown) [CBK305549]	90.7
CCC(=O)N1CCC(NC(=O)c2cnc(-c3ccncc3)s2)C1 (stereo not shown) [CBK305550]	94.6
COc1ccc(-n2nnc(C(=O)N3CCCCC3C(N)=O)c2C)cc1 (stereo not shown) [CBK305551]	98.1
Cc1ccc2c(c1)nc(CNC(=O)NCCc1nc(C)no1)n2C [CBK305552]	98.8
Cc1ccc2c(c1)nc(CNC(=O)NC1CCCc3cn[nH]c31)n2C (stereo not shown) [CBK305554]	77.5
CC1(O)CCCN(C(=O)c2c[nH]nc2-c2cc3ccccc3o2)C1 (stereo not shown) [CBK305555]	88.3
CCS(=O)(=O)N1CCc2cc(-c3csc(-c4cnn(C)c4)n3)ccc21 [CBK305560]	93.7
Cc1ccc(Cl)cc1NC(=O)C1CC(=O)N(Cc2ccccn2)C1 (stereo not shown) [CBK305561]	101
Cc1cc(NC(=O)CN(C)C(=O)Cc2cccc(C(F)(F)F)c2)no1 [CBK305564]	80.5
O=C1NC2(CCCC2)C(=O)N1Cc1cnn(-c2ccccc2)n1 [CBK305568]	103
Cc1oc(NC(=O)CN2CCN(c3ncccn3)CC2)c(C#N)c1C [CBK305569]	94.6
O=C1NC2(CCCCC2)C(=O)N1Cc1cnn(-c2ccccc2)n1 [CBK305570]	97.8
Cn1ccc(C(=O)NCc2cccnc2OCC(F)(F)F)cc1=O [CBK305574]	99.9
Cc1cc(NC(=O)CN(C)C(=O)c2ccc(-n3cc(Br)cn3)cc2)no1 [CBK305575]	100
CN(C1CCCCC1)S(=O)(=O)NCCc1cn2ccccc2n1 [CBK305576]	102
CCn1c(=O)n(CCC(N)=O)c2cc(S(=O)(=O)N(C)C)ccc21 [CBK305577]	99.6
O=C(NCc1cccnc1OCC(F)(F)F)c1ccc(=O)[nH]n1 [CBK305578]	92.1
O=C(Cn1ccc(=O)[nH]c1=O)NCc1cccnc1OC1CCCC1 [CBK305582]	94.9
CCOC(=O)Cc1csc(SC(C)C(=O)N2CCc3ccccc3C2)n1 (stereo not shown) [CBK305586]	99.9
COCCn1nc(C(=O)N2CCCc3ccccc32)ccc1=O [CBK305590]	85.1

SMILES	viability at 28.5 h, 10 µM [%]
CC(=O)Nc1nc(CN2CCOC(c3ccc(F)cc3)C2)cs1 (stereo not shown) [CBK305591]	98.5
O=C(Cn1cccn1)NCC(c1ccccc1Cl)N1CCOCC1 (stereo not shown) [CBK305593]	93.1
CCCC1(C)NC(=O)N(Cc2coc(-c3cccs3)n2)C1=O (stereo not shown) [CBK305594]	100
O=C(NCCc1ccsc1)N1CCN(c2ccncc2)CC1 [CBK305595]	102
CN(CC1CCCN(C(=O)Nc2cccc(Cl)c2)C1)C(=O)OC(C)(C)C (stereo not shown) [CBK305597]	94.2
CN1CCN(c2nc(-c3ccc4c(c3)CCCC(=O)N4)cs2)CC1 [CBK305600]	98.6
O=C1NC(=O)C2(CCN(C(=O)c3csc4c3CCCC4)CC2)N1 [CBK305601]	97.2
CC(=O)N1CCN(C(=O)C(C)S(=O)(=O)c2ccccc2F)CC1 (stereo not shown) [CBK305603]	97.7
CCOc1ccc(CN(C)CC(=O)Nc2cc(C)no2)cc1 [CBK305605]	79.8
CCOc1ccc(CN(C)C(C)C(=O)Nc2cc(C)no2)cc1 (stereo not shown) [CBK305607]	96.6
COCCNC(=O)CN(C)c1nc(-c2ccncc2)nc2ccccc12 [CBK305611]	94.2
Cn1cc(CCNC(=O)NC2CCN(c3ncccn3)CC2)cn1 [CBK305612]	104
CCOC(=O)c1cnn2c(O)cc(CN(Cc3ccco3)C3CC3)nc12 [CBK305613]	82.3
COc1ccc(CC(=O)NCC(c2cccs2)N2CCOCC2)cc1F (stereo not shown) [CBK305618]	99.5
CS(=O)(=O)NC1CCCN(c2ncnc3ccccc23)C1 (stereo not shown) [CBK305619]	111
Cc1cc(C)n(CC(=O)NCC(c2cccs2)N2CCOCC2)n1 (stereo not shown) [CBK305620]	102
Cc1cc(C)n(CC(C)CNC(=O)Cc2csc(N3CCCC3=O)n2)n1 (stereo not shown) [CBK305624]	91.2
Cn1cc(-c2nc(C(=O)NC3CCCN(c4ncccn4)C3)cs2)cn1 (stereo not shown) [CBK305629]	77.7
CC(C)c1nc(CC(=O)NCCS(=O)(=O)N2CCc3ccccc32)cs1 [CBK305630]	84.5
Cc1occc1C(=O)Nc1nc(CC(=O)N(C)Cc2ccsc2)cs1 [CBK305631]	83.8
Cc1nc(-c2ccsc2)sc1C(=O)NC1CCCN(c2ncccn2)C1 (stereo not shown) [CBK305632]	87.6
Cn1cc(-c2nc(C(=O)NCC3CCN(c4ccccc4)C3)cs2)cn1 (stereo not shown) [CBK305633]	84.8
CC1c2ccsc2CCN1C(=O)CC(NC(N)=O)c1cccc(Br)c1 (stereo not shown) [CBK305635]	110

SMILES	viability at 28.5 h, 10 µM [%]
Cc1cc(NC(=O)CCc2c(C)nc(N3CCOCC3)[nH]c2=O)no1 [CBK305636]	93.2
O=C(NCCNc1cnccn1)c1ccc(Br)cc1F [CBK305639]	89.5
COCCn1c(SCc2nc3ccccc3nc2C)nc(C)c1C [CBK305651]	106
Cc1c(C(=O)NC2CCCN(c3ncccn3)C2)cnn1C(C)(C)C (stereo not shown) [CBK305652]	91.3
Cn1cc(CCNC(=O)Nc2ccc(N3CCCCC3)nc2)cn1 [CBK305656]	95.2
Cc1nn(C)c2ncc(C(=O)N(C)Cc3ccc(C(C)(C)C)cc3)cc12 [CBK305657]	99.9
O=C(NCc1cccs1)NC1CCCc2c1cnn2CCO (stereo not shown) [CBK305658]	100
Cc1nc(COc2ccc(C(=O)N3CCCC(C(N)=O)C3)cc2)no1 (stereo not shown) [CBK305660]	84.2
CCOC(=O)C1CCCN(C(=O)Nc2cc(C)on2)C1 (stereo not shown) [CBK305661]	81.8
CCCNC(=O)CN1CCC(NC(=O)Cn2cc(Br)ccc2=O)CC1 [CBK305665]	94
Cn1cc(-c2nc(C(=O)NCc3ccnc(N4CCCC4)c3)cs2)cn1 [CBK305666]	92.9
O=C(Cn1cc(Br)ccc1=O)NC1CCCN(Cc2ccccc2)C1 (stereo not shown) [CBK305668]	83.7
Cc1cccc(CN2CCC(NC(=O)Cn3cc(Br)ccc3=O)CC2)c1 [CBK305669]	80
O=C(Cn1cc(Br)ccc1=O)NC1CCN(Cc2ccccc2)CC1 [CBK305671]	95.6
CCCNC(=O)CN(C)Cc1nc(-c2cccc(C(F)(F)F)c2)no1 [CBK305672]	103
Cn1cc(C(=O)NC2CCN(C(=O)c3cccc(C#N)c3)CC2)cn1 [CBK305673]	110
O=C(CCN1CCCC1Cn1cncn1)NCCc1ccccc1 (stereo not shown) [CBK305677]	92.9
CC(OCc1ccccc1)C(=O)NCC1(N2CCOCC2)CCSC1 (stereo not shown) [CBK305678]	114
CC(=O)Nc1ccc(CNC(=O)c2cccnc2OCC(F)(F)F)cc1 [CBK305682]	91.5
Cn1cc(C(=O)NC2CCN(C(=O)c3ccc(C#N)cc3)CC2)cn1 [CBK305683]	94.4
Cc1cc(NC(=O)C2CCN(CCOc3ccccc3F)CC2)no1 [CBK305688]	100
CCCC(=O)Nc1ccc(OCCOC(C)(C)C)c(C(C)=O)c1 [CBK305691]	79.8
Cc1nn(CCC#N)c(C)c1CCC(=O)NCc1ccccn1 [CBK305693]	82.5

SMILES	viability at 28.5 h, 10 µM [%]
CCOC(=O)c1cnn2c(O)cc(CN3CCCc4ccccc43)nc12 [CBK305694]	118
CC(C)(C)OC(=O)N1CCC(C(=O)NCc2ccccn2)CC1 [CBK305696]	103
CCOC(=O)N1CCC(NS(=O)(=O)c2cn(C)c(=O)n(C)c2=O)CC1 [CBK305699]	89.1
CCN(Cc1ccc(C#N)cc1F)C(=O)Nc1cnn(CC)c1 [CBK305702]	93.1
COCCn1c(SCc2cn3cc(Br)ccc3n2)nc(C)c1C [CBK305704]	83.1
CCCCc1nc(CS(=O)(=O)C(C)c2nc(C(C)C)no2)cs1 (stereo not shown) [CBK305707]	88.3
Cc1cc(C)n(CCCNC(=O)Cc2csc(N3CCCC3=O)n2)n1 [CBK305708]	94.6
COC(=O)c1cc(C#N)c(=O)n(CC(O)COc2c(C)cccc2C)c1 (stereo not shown) [CBK305709]	97.2
Cc1cc(N2CCN(C(=O)CCc3ccccc3)CC2)nc(C(C)C)n1 [CBK305711]	99.3
COc1ccc(CN2CCN(C(=O)c3cccc(N(C)C)c3)CC2)cc1 [CBK305713]	98
C#CCNS(=O)(=O)c1cccc(C(=O)NC2CCN(CCOC)CC2)c1 [CBK305714]	89
COC(=O)c1cc(C#N)c(=O)n(CC(O)COCc2ccco2)c1 (stereo not shown) [CBK305718]	94.7
COc1ccc(C(=O)N2CCN(c3cnn(C)c(=O)c3Cl)CC2)cc1 [CBK305720]	84.8
Cn1cc(C(=O)OCc2cccc(S(=O)(=O)N3CCOCC3)c2)cn1 [CBK305721]	88.1
Cc1cc(C)cc(C(=O)N2CCC(NC(=O)c3cnn(C)c3)CC2)c1 [CBK305723]	92.3
Cc1cc(N2CCOCC2)ccc1NC(=O)CCOc1cccc(Cl)c1 [CBK305724]	102
CCc1nc(COC(=O)C2CCN(C(=O)c3ccc(F)cc3)CC2)cs1 [CBK305725]	111
O=C(NCCNc1cnccn1)c1cccc(Cl)c1Cl [CBK305727]	84.9
CC(=O)Nc1ccc(C(=O)NCc2ccc(OCC(F)(F)F)cc2)cc1 [CBK305732]	98
COC(=O)c1ccc(N2CCN(Cc3nc(C4CC4)no3)C(C)C2)cc1 (stereo not shown) [CBK305744]	98
CN(CCCc1cc(-c2cccc(F)c2)n[nH]1)C(=O)c1cnn(C)c1 [CBK305745]	86.6
CCc1ccc(CNC(=O)NC2CCCc3c2cnn3CCO)s1 (stereo not shown) [CBK305747]	84.4
